Laboratory results taken from ChEMBL document CHEMBL4257591 (J Med Chem, 2018).
≈ marks a conversion by molar mass, not a printed value. Calls of active or inactive are those of the source. The calls are words filed in the database; no cut-off is given here. Residues, ends and D or L forms follow the SMILES beside them.

Legend:
Escherichia coli [1] = assay: Induction of membrane permeabilization in Escherichia coli KCTC 1682 assessed as PI-positive cells at 16 uM after 1 to 2 hrs by propidium iodide-staining based flow cytometry (reference value: 2.36%); format: functional
[2] = Hemolytic activity in sheep RBC assessed as free hemoglobin level up to 256 uM by ELISA relative to control; format: ADME, cell-based, Ovis aries, Erythrocyte; details: sheep red blood cells (erythrocytes), read-out: Activity
Staphylococcus aureus [3] = assay: Antimicrobial activity against methicillin-resistant Staphylococcus aureus CCARM 3090 after 18 hrs; format: functional; details: CCARM 3090, 18 h
Staphylococcus aureus [4] = assay: Antimicrobial activity against methicillin-resistant Staphylococcus aureus CCARM 3095 after 18 hrs; format: functional; details: CCARM 3095, 18 h
Pseudomonas aeruginosa [5] = assay: Antimicrobial activity against multidrug-resistant Pseudomonas aeruginosa CCARM 2095 after 18 hrs; format: functional; details: CCARM 2095, 18 h
Salmonella typhimurium = assay: Antimicrobial activity against Salmonella typhimurium KCTC 1926 after 18 hrs; format: functional, Salmonella enterica subsp. enterica serovar Typhimurium; details: Salmonella enterica, KCTC 1926, 18 h
Escherichia coli [6] = assay: Induction of membrane permeabilization in Escherichia coli KCTC 1682 assessed as PI-positive cells at 12.5 uM after 1 to 2 hrs by propidium iodide-staining based flow cytometry (reference value: 2.36%); format: functional
Staphylococcus aureus [7] = assay: Bactericidal activity against Staphylococcus aureus KCTC 1621 at MIC concentration after 30 mins by time kill assay; format: functional, organism-based
Pseudomonas aeruginosa [8] = assay: Antimicrobial activity against Pseudomonas aeruginosa KCTC 1637 after 18 hrs; format: functional; details: KCTC 1637, 18 h
Bacillus subtilis = assay: Antimicrobial activity against Bacillus subtilis KCTC 3068 after 18 hrs; format: functional; details: KCTC 3068, 18 h
Staphylococcus aureus [9] = assay: Induction of cytoplasmic membrane depolarization in Staphylococcus aureus KCTC 1621 at 2 to 8 times MIC concentration by DiSC3(5)-dye based fluorescence spectrophotometry; format: functional, organism-based
Escherichia coli [10] = assay: Bactericidal activity against Escherichia coli KCTC 1682 at MIC concentration after 120 to 180 mins by time kill assay; format: functional, organism-based
Staphylococcus aureus [11] = assay: Antimicrobial activity against methicillin-resistant Staphylococcus aureus CCARM 3089 after 18 hrs; format: functional; details: CCARM 3089, 18 h
Escherichia coli [12] = assay: Antimicrobial activity against Escherichia coli KCTC 1682 after 18 hrs; format: functional; details: KCTC 1682, 18 h
RAW264.7 = assay: Cytotoxicity against mouse RAW264.7 cells at 512 uM after 48 hrs by MTT assay; format: cell-based; details: raw264.7, 48 h
[13] = tested on: Staphylococcus epidermidis; assay: Antimicrobial activity against Staphylococcus epidermidis KCTC 1617 after 18 hrs; format: functional; details: KCTC 1617, 18 h
Staphylococcus aureus [14] = assay: Induction of membrane permeabilization in Staphylococcus aureus KCTC 1621 at 2 to 8 times MIC concentration up to 300 secs by SYTOX green uptake assay; format: functional, organism-based
Staphylococcus aureus [15] = assay: Antimicrobial activity against Staphylococcus aureus KCTC 1621 after 18 hrs; format: functional; details: KCTC 1621, 18 h
DNA = assay: Binding affinity to Escherichia coli pBR322 DNA assessed as inhibition of DNA migration at 16 uM after 1 hr by agarose gel electrophoresis and UV spectroscopy; format: nucleic-acid assay
Enterococcus faecium = assay: Antimicrobial activity against vancomycin-resistant Enterococcus faecium ATCC 51559 after 18 hrs; format: functional; details: ATCC 51559, 18 h

SMILES | Activity (Escherichia coli [1]) | hemolysis [2] | MIC (Staphylococcus aureus [3]) | MIC (Staphylococcus aureus [4]) | MIC (Pseudomonas aeruginosa [5]) | MIC (Salmonella typhimurium) | Activity (Escherichia coli [6]) | Activity (Staphylococcus aureus [7]) | MIC (Pseudomonas aeruginosa [8]) | MIC (Bacillus subtilis) | Activity (Staphylococcus aureus [9]) | Activity (Escherichia coli [10]) | MIC (Staphylococcus aureus [11]) | MIC (Escherichia coli [12]) | Activity (RAW264.7) | MIC [13] | Activity (Staphylococcus aureus [14]) | MIC (Staphylococcus aureus [15]) | Activity (DNA) | MIC (Enterococcus faecium)
CC[C@H](C)[C@H](NC(=O)[C@H](CCCCN)NC(=O)[C@H](CCC(=O)O)NC(=O)[C@H](CCCCN)NC(=O)[C@H](CO)NC(=O)[C@H](CCCCN)NC(=O)[C@H](CCCNC(=N)N)NC(=O)[C@H](Cc1ccccc1)NC(=O)[C@H](Cc1ccccc1)NC(=O)[C@H](CC(=O)O)NC(=O)CNC(=O)[C@H](CC(C)C)NC(=O)[C@@H](N)CC(C)C)C(=O)NCC(=O)N[C@@H](CCCCN)C(=O)N[C@@H](CCC(=O)O)C(=O)N[C@@H](Cc1ccccc1)C(=O)N[C@@H](CCCCN)C(=O)N[C@@H](CCCNC(=N)N)C(=O)N[C@H](C(=O)N[C@H](C(=O)N[C@@H](CCC(N)=O)C(=O)N[C@@H](CCCNC(=N)N)C(=O)N[C@H](C(=O)N[C@@H](CCCCN)C(=O)N[C@@H](CC(=O)O)C(=O)N[C@@H](Cc1ccccc1)C(=O)N[C@@H](CC(C)C)C(=O)N[C@@H](CCCNC(=N)N)C(=O)N[C@@H](CC(N)=O)C(=O)N[C@@H](CC(C)C)C(=O)N[C@H](C(=O)N1CCC[C@H]1C(=O)N[C@@H](CCCNC(=N)N)C(=O)N[C@H](C(=O)N[C@@H](CCC(=O)O)C(=O)N[C@@H](CO)C(=O)O)[C@@H](C)O)C(C)C)[C@@H](C)CC)C(C)C)[C@@H](C)CC [CATHELICIDIN] | 75.38% | – | – | – | – | – | – | – | – | – | – | – | – | – | – | – | – | – | – | –
CC[C@H](C)[C@H](NC(=O)[C@@H](NC(=O)[C@H](Cc1cnc[nH]1)NC(=O)[C@H](CCCNC(=N)N)NC(=O)[C@H](C)NC(=O)[C@H](CCCNC(=N)N)NC(=O)[C@H](CC(C)C)NC(=O)[C@H](CO)NC(=O)[C@H](C)NC(=O)[C@H](CO)NC(=O)[C@H](CC(C)C)NC(=O)[C@@H](N)CC(N)=O)[C@@H](C)O)C(=O)N1CCC[C@H]1C(=O)N[C@@H](CCC(N)=O)C(=O)N[C@@H](CO)C(=O)N[C@@H](CCCNC(=N)N)C(=O)N[C@@H](CCCCN)C(=O)N[C@@H](Cc1ccccc1)C(=O)NCC(=O)N[C@@H](CCCNC(=N)N)C(=O)N[C@@H](CCCNC(=N)N)C(N)=O (H-NLSASLRARHTIPQSRKFGRR-NH2) | – | < 1% | 50 µM (≈ 123 µg/mL) | 25 µM (≈ 61.3 µg/mL) | 12.5 µM (≈ 30.6 µg/mL) | 6.3 µM (≈ 15.4 µg/mL) | 3.66% | Active | 6.3 µM (≈ 15.4 µg/mL) | 12.5 µM (≈ 30.6 µg/mL) | inactive | Active | 25 µM (≈ 61.3 µg/mL) | 6.3 µM (≈ 15.4 µg/mL) | Non-Toxic | 6.3 µM (≈ 15.4 µg/mL) | inactive | 12.5 µM (≈ 30.6 µg/mL) | Active | 50 µM (≈ 123 µg/mL)
CC[C@H](C)[C@H](NC(=O)[C@@H](NC(=O)[C@H](Cc1cnc[nH]1)NC(=O)[C@H](CCCNC(=N)N)NC(=O)[C@H](C)NC(=O)[C@H](CCCNC(=N)N)NC(=O)[C@H](CC(C)C)NC(=O)[C@H](CO)NC(=O)[C@H](C)NC(=O)[C@H](CS)NC(=O)[C@H](CC(C)C)NC(=O)[C@@H](N)CC(N)=O)[C@@H](C)O)C(=O)N1CCC[C@H]1C(=O)N[C@@H](CCC(N)=O)C(=O)N[C@@H](CS)C(=O)N[C@@H](CCCNC(=N)N)C(=O)N[C@@H](CCCCN)C(=O)N[C@@H](Cc1ccccc1)C(=O)NCC(=O)N[C@@H](CCCNC(=N)N)C(=O)N[C@@H](CCCNC(=N)N)C(N)=O (H-NLCASLRARHTIPQCRKFGRR-NH2) | – | – | 25 µM (≈ 62.1 µg/mL) | 12.5 µM (≈ 31 µg/mL) | 50 µM (≈ 124 µg/mL) | 12.5 µM (≈ 31 µg/mL) | – | – | 12.5 µM (≈ 31 µg/mL) | 12.5 µM (≈ 31 µg/mL) | inactive | – | 12.5 µM (≈ 31 µg/mL) | 12.5 µM (≈ 31 µg/mL) | – | 12.5 µM (≈ 31 µg/mL) | inactive | 12.5 µM (≈ 31 µg/mL) | – | 25 µM (≈ 62.1 µg/mL)
